# According to patent publication US9700543B2, “GLP-1 receptor stabilizers and modulators” (Celgene International II SÀRL, priority 2011, dated 2017):
# Tests used:
# [1] = Determination of absolute oral bioavailability in rats; format: in vivo; details: rat, plasma, fasted female Sprague-Dawley rats, intravenous 1 mg/kg
# Procedure: Determination of Absolute Oral Bioavailability in Rats
# All pharmacokinetic studies were conducted in fasted female Sprague-Dawely rats (Simonsen Laboratories or Harlan Laboratories). Rats were housed in an ALAAC accredited facility and the research was approved by the facilities Institutional Animal Care and Use Committee (IACUC). The animals were acclimated to the laboratory for at least 48 h prior to initiation of experiments.
# Compounds were formulated in 20% hydroxy beta cyclodextrin or 20% captisol and 80%-25 mM NaPO4 Buffer (pH 8) (intravenous infusion), or 5% DMSO/5% Tween20 and 90% water (oral gavage or intraperitoneal injection). The concentration of the dosing solutions was verified by HPLC-UV. For intravenous dosing, compounds were administered into the tail vein to manually restrained animals (n=3 rats/compound). The intravenous dose was 1 mg/kg. Oral dosing was by gavage using a standard stainless steel gavage needle (n=2-4 rats/compound). The oral solution dose was 5 mg/kg. For compounds 1 and 3, the oral solution dose was 30 mg/kg. For both routes of administration, blood was collected into BD Microtainer tubes with Dipotassium EDTA as the anticoagulantant eight time-points after dosing with the final sample drawn 24 h post dose Plasma was separated by centrifugation and transferred to a polypropylene 96-well plate and kept at 4° C. until analysis.
# Proteins were precipitated by adding 150 μL acetonitrile to 50 μL of plasma. Plates were mixed for 1 min on a plate shaker to facilitate protein precipitation and then centrifuged at 3,000 rpm for 10 min to pellet protein. The supernatant was transferred to a clean plate and centrifuged at 3,000 rpm for 10 min to pellet any remaining solid material prior to LC/MS/MS analysis. Calibration curve standards were prepared by spiking 54 compound stock in DMSO into rat plasma from untreated animals. An eight point standard curve spanning a range of 0.14 nM to 300 nM was included with each bio-analytical run. The standards were processed identically to the rat pharmacokinetic samples.
# Concentrations in the rat pharmacokinetic samples were determined using a standardized HPLC-LC/MS/MS method relative to the eight point standard curve. The system consisted of a Leap CTC Pal injector, Agilent 1200 HPLC with binary pump coupled with an Applied Biosystems 4000 QTrap. Compounds were chromatographed on a Phenomenex Luna C8(2) 20×2 mm 2 um Mercury Cartridge with Security Guard. A gradient method was used with mobile phase A consisting of 0.1% formic acid in water and mobile phase B consisting of 0.1% formic acid in acetonitrile at flow rates varying from 0.7 to 0.8 mL/min. Ions were generated in positive ionization mode using an electrospray ionization (ESI) interface. Multiple reaction monitoring (MRM) methods were developed specific to each compound. The heated nebulizer was set at 500° C. with a nebulizer current of 5.1 μA. Collision energies used to generate daughter ions ranged between 29 and 80 V. Peak area obtained from MRM of the mass transitions specific for each compound were used for quantification. The limit of quantification of the method was typically 1.2 nM. Data were collected and analyzed using Analyst software version 1.5.1. Blood concentration versus time data were analyzed using non-compartmental methods (WinNonlin Phoenix version 6.2; model 200 for oral or intraperitoneal dosing and model 202 for intravenous infusion). Absolute oral bioavailability (%) was calculated using the following expression: (Oral AUC×IV Dose)/(IV AUC×Oral Dose)×100.
# GLP-1R = target: T1, GLP-1R (Homo sapiens, UniProt P43220); assay: EC20 GLP-1(9-36) PAM cAMP assay: dose response of compound in the presence of fixed concentration of GLP-1(9-36); format: cell-based; details: compound dose response with fixed GLP-1(9-36), GLP-1R CRE-bla CHO-K1 cells; for EC20 GLP-1 (9-36) PAM Activity max cAMP: Emax as total cAMP; for EC50: cAMP
# T1 construct: host or cells: CRE-bla CHO-K1
# Procedure: EC20GLP-1(9-36) PAM cAMP Assay: Dose Response of Compound in the Presence of Fixed Concentration of GLP-1 (9-36)
# GLP-1R CRE-bla CHO-K1 cells were seeded into 384-well white flat bottom plates at 10,000 cells/well/20 μL growth medium (DMEM-High glucose, 10% dialyzed FBS, 0.1 mM NEAA, 25 mM Hepes, 100 U/mL penicillin/100 μg/mL streptomycin, 5 μg/mL Blasticidin, 600 μg/mL Hygromycin) and incubated for 18 h at 37° C. in 5% CO2. Growth medium was replaced with 12 μL assay buffer (Hanks Balanced Salt solution, 10 mM Hepes, 0.1% BSA, pH7.4). A 5× compound dose response curve (12-point) was generated in assay buffer containing 1.5 mM IBMX, 12.5% DMSO. GLP-1(9-36) was diluted to 4.2 μM in assay buffer containing 1.5 mM IBMX and 12.5% DMSO. The 5× compound dose response was added (3 μL), followed by 0.5 μL of GLP-1(9-36) and cells were incubated for 30 min at 37° C. Direct detection of cAMP was carried out using DiscoveRx HitHunter cAMP kit according to manufacturer's instructions and luminescence was read using a SpectraMax M5 plate reader. Luminescence was converted to total cAMP using a cAMP standard curve and data was analyzed by non-linear regression to determine the EC50 and Emax.
# [2] = oral solution 30 mg/kg (compounds 1 and 3)
# T1 sequence (P43220 24-463): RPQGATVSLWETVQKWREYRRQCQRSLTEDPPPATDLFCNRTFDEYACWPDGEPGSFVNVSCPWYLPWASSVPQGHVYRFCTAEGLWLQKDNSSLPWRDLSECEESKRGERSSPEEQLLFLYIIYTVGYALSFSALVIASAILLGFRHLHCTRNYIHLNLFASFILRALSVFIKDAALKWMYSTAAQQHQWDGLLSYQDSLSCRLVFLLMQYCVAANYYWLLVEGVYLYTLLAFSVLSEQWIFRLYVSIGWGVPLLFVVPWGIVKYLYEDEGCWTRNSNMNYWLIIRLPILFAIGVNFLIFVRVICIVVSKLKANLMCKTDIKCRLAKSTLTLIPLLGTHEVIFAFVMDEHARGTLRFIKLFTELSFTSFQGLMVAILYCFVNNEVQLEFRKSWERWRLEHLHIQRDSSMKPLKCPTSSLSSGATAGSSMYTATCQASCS
# T1 sequence (P01275 100-127 partner limits assumed): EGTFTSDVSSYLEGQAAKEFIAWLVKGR
SMILES,bioavailability ([1]; oral solution 5 mg/kg) [%],EC20 GLP-1 (9-36) PAM Activity max cAMP (GLP-1R) [nM],EC50 (GLP-1R) [nM],"bioavailability [1, 2] [%]"
"COc1ccc(CC(=O)Nc2ccc(C(=O)N(CC(=O)O)Cc3ccc(-c4noc(-c5ccc(-c6ccc(C)cc6)cc5)n4)cc3)cc2)c(C(F)(F)F)c1 [Compound 354, 2-(4-(2-(4-methoxy-2-(trifluoromethyl)phenyl)acetamido)-N-(4-(5-(4′-methyl-[1,1′-biphenyl]-4-yl)-1,2,4-oxadiazol-3-yl)benzyl)benzamido)acetic acid]",2,297,300,–
"CCCCCCOc1ccc(C(=O)Oc2ccc(CN(CC(=O)O)C(=O)c3ccc(NC(=O)Cc4ccc(OC)cc4)cc3)cc2)cc1 [Compound 18, 2-(N-(4-((4-(hexyloxy)benzoyl)oxy)benzyl)-4-(2-(4-methoxyphenyl)acetamido)benzamido) acetic acid]",–,182,3100,–
"COc1ccc(CC(=O)Nc2ccc(C(=O)N(CC(=O)O)Cc3ccc(-c4coc(-c5ccc(-c6ccc(C)cc6)cc5)n4)cc3)cc2)c(C(F)(F)F)c1 [Compound 364, 2-(4-(2-(4-methoxy-2-(trifluoromethyl)phenyl)acetamido)-N-(4-(2-(4′-methyl-[1,1′-biphenyl]-4-yl)oxazol-4-yl)benzyl)benzamido)acetic acid]",10,278,400,–
"COc1ccc(CC(=O)Nc2ccc(C(=O)N(CC(=O)O)Cc3ccc(-c4n[nH]c(-c5ccc(-c6ccc(C)cc6)cc5)n4)cc3)cc2)c(C(F)(F)F)c1 [Compound 361, 2-(4-(2-(4-methoxy-2-(trifluoromethyl)phenyl)acetamido)-N-(4-(5-(4′-methyl-[1,1′-biphenyl]-4-yl)-1H-1,2,4-triazol-3-yl)benzyl)benzamido)acetic acid]",–,234,2700,–
"COc1ccc(CC(=O)Nc2ccc(C(=O)N(CC(=O)O)Cc3ccc(OC(=O)c4ccc(C5CCCCC5)cc4)cc3)cc2)cc1 [Compound 39, 2-(N-(4-((4-cyclohexylbenzoyl)oxy)benzyl)-4-(2-(4-methoxyphenyl)acetamido)benzamido) acetic acid]",–,273,2500,–
"COc1ccc(F)c(CC(=O)Nc2ccc(C(=O)N(CC(=O)O)Cc3ccc(-c4noc(-c5ccc(-c6ccc(C)cc6)cc5)n4)cc3)cc2)c1F [Compound 441, 2-(4-(2-(2,6-difluoro-3-methoxyphenyl)acetamido)-N-(4-(5-(4′-methyl-[1,1′-biphenyl]-4-yl)-1,2,4-oxadiazol-3-yl)benzyl)benzamido)acetic acid]",5,167,500,–
"CCCCCCCCCOc1ccc(C(=O)Oc2ccc(CN(CC(=O)O)C(=O)c3ccc(NC(=O)Cc4ccc(OC)cc4)cc3)cc2)cc1 [Compound 16, 2-(4-(2-(4-methoxyphenyl)acetamido)-N-(4-((4-(nonyloxy)benzoyl)oxy)benzyl)benzamido) acetic acid]",–,293,1200,–
"COc1cccc(OC)c1CC(=O)Nc1ccc(C(=O)N(CC(=O)O)Cc2ccc(-c3noc(-c4ccc(-c5ccc(C)cc5)cc4)n3)cc2)cc1 [Compound 411, 2-(4-(2-(2,6-dimethoxyphenyl)acetamido)-N-(4-(5-(4′-methyl-[1,1′-biphenyl]-4-yl)-1,2,4-oxadiazol-3-yl)benzyl)benzamido)acetic acid]",10,258,200,–
"COc1ccc(CC(=O)Nc2ccc(C(=O)N(CC(=O)O)Cc3ccc(OC(=O)c4ccc(-c5ccc(C)cc5)cc4)cc3)cc2)c(C(F)(F)F)c1 [Compound 192, 2-(4-(2-(4-methoxy-2-(trifluoromethyl)phenyl)acetamido)-N-(4-((4′-methyl-[1,1′-biphenyl]-4-carbonyl)oxy)benzyl)benzamido)acetic acid]",–,248,1300,–
"CCCCCCCOc1ccc(C(=O)Oc2ccc(CN(CC(=O)O)C(=O)c3ccc(NC(=O)Cc4ccc(OC)cc4C(F)(F)F)cc3)cc2)cc1 [Compound 3, 2-(N-(4-((4-(heptyloxy)benzoyl)oxy)benzyl)-4-(2-(4-methoxy-2-(trifluoromethyl)phenyl)-acetamido)benzamido)acetic acid]",–,284,1300,< 1
"CCCCCCCCOc1ccc(C(=O)Oc2ccc(CN(CC(=O)O)C(=O)c3ccc(NC(=O)Cc4ccc(OC)cc4)cc3)cc2)cc1 [Compound 17, 2-(4-(2-(4-methoxyphenyl)acetamido)-N-(4-((4-(octyloxy)benzoyl)oxy)benzyl)benzamido) acetic acid]",–,281,1500,–
"CCCCCCCOc1ccc(C(=O)Oc2ccc(CN(CC(=O)O)C(=O)c3ccc(NC(=O)Cc4ccc(OC)cc4)cc3)cc2)cc1 [Compound 1, 2-(N-(4-((4-(heptyloxy)benzoyl)oxy)benzyl)-4-(2-(4-methoxyphenyl)acetamido)benzamido)-acetic acid]",–,240,3600,< 1
"COc1ccc(CC(=O)Nc2ccc(C(=O)N(CC(=O)O)Cc3ccc(OC(=O)c4ccc(-c5ccc(C)cc5)cc4)cc3)c(OC)c2)c(C(F)(F)F)c1 [Compound 314, 2-(2-methoxy-4-(2-(4-methoxy-2-(trifluoromethyl)phenyl)acetamido)-N-(4-((4′-methyl-[1,1′-biphenyl]-4-carbonyl)oxy)benzyl)benzamido)acetic acid]",–,307,500,–
"CCCCCCCCc1ccc(C(=O)Oc2ccc(CN(CC(=O)O)C(=O)c3ccc(NC(=O)Cc4ccc(OC)cc4)cc3)cc2)cc1 [Compound 40, 2-(4-(2-(4-methoxyphenyl)acetamido)-N-(4-((4-octylbenzoyl)oxy)benzyl)benzamido)acetic acid]",–,397,2100,–
"CCCCCCCOc1ccc(C(=O)Oc2ccc(CN(CC(=O)O)C(=O)c3ccc(NC(=O)Cc4ccc(C)c(OC)c4)cc3)cc2)cc1 [Compound 4, 2-(N-(4-((4-(heptyloxy)benzoyl)oxy)benzyl)-4-(2-(3-methoxy-4-methylphenyl)-acetamido)benzamido)acetic acid]",–,371,2400,–
"COc1ccc(CC(=O)Nc2ccc(C(=O)N(CC(=O)O)Cc3ccc(OC(=O)c4ccc(OCCC(C)C)cc4)cc3)cc2)cc1 [Compound 46, 2-(N-(4-((4-(isopentyloxy)benzoyl)oxy)benzyl)-4-(2-(4-methoxyphenyl)acetamido)benzamido) acetic acid]",–,252,7000,–
